According to BigSolDB 2.1:

COc1cc(/C=C/c2ccc(O)cc2)cc(OC)c1
Conditions | solubility (mole fraction)
in PEG-400, 298.2 K | 0.346
in PEG-400, 303.2 K | 0.351
in PEG-400, 308.2 K | 0.358
in PEG-400, 313.2 K | 0.366
in PEG-400, 318.2 K | 0.373

solubility (mole fraction)
Conditions | 298.2 K | 303.2 K | 308.2 K | 313.2 K | 318.2 K
in ethanol | 0.113 | 0.117 | 0.124 | 0.129 | 0.136
in propylene glycol | 0.25 | 0.26 | 0.272 | 0.281 | 0.29
in transcutol | 0.23 | 0.235 | 0.241 | 0.248 | 0.253
in water | 1.27e-06 | 1.62e-06 | 2.04e-06 | 2.53e-06 | 2.95e-06
